This is an account of results in PMC5464344, “Analgesic and anti‐inflammatory properties of novel, selective, and potent EP4 receptor antagonists” (Pharmacology Research & Perspectives, 2017).

Broadly, the inhibition is the change of the read-out against control, counted positive when it falls.

Assay [1] deals with male Lewis rats, MIA injected knee. Set-up: method as in Blanco et al. 2016b. The conditions noted are these: results published previously, ref Blanco et al. 2016b; cited from earlier work.
For assay [2], the system named is male Lewis rats, adjuvant induced arthritis. On the set-up: method as in Blanco et al. 2016b. The conditions noted are these: results published previously, ref Blanco et al. 2016b; cited from earlier work.
The target of the next assay is T1, COXl (h) (Homo sapiens, UniProt P23219).
T1 construct: CEREP (contract laboratory that ran the assay)
T1 sequence (P23219 24-599): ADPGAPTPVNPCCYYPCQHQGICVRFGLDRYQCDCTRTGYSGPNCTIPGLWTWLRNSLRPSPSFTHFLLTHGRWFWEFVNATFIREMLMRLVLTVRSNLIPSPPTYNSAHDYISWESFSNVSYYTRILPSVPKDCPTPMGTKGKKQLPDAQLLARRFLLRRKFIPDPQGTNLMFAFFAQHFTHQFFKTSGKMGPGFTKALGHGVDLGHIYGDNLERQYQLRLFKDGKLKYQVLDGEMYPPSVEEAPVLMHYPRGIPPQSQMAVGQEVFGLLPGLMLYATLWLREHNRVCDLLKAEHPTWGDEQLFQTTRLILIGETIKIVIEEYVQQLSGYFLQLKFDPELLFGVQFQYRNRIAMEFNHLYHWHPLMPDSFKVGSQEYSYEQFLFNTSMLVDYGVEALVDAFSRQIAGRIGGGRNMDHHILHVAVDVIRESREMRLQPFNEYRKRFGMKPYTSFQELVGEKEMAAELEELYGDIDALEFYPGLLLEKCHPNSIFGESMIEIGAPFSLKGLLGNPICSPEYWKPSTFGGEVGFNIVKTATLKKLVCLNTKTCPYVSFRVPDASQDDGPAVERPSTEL
As to the kind of experiment: Off-target activity (CEREP), COX1. The format is biochemical. The note with it: 10 μmol/L; obtained at CEREP (Blanco et al. 2016c); Compound 1 value footnoted: non-specific assay interference. From the text:
The off‐target activity related to prostaglandin pathway (Table 2) were obtained at CEREP (Blanco et al. 2016c).

Structures are written as SMILES.

Consider `Cc1ccc(N2CCC(O)CC2)nc1C(=O)Nc1c(C)cc(C(=O)O)cc1C` [Compound 1], for which, in assay [1], the “efficacy in rat MIA model of pain” value is “effective”. Further, the “efficacy in rat AIA model of inflammation” value in assay [2] is given as “effective”.

Take `C[C@H](NC(=O)[C@H]1CCCCN1CCOc1ccccc1)c1ccc(C(=O)O)cc1` [Compound 2]: on COXl (h), the inhibition at 10 µM was -24%.
